Source: patent US20230117324A1, “OXAZINE MONOACYLGLYCEROL LIPASE (MAGL) INHIBITORS” (Hoffmann-La Roche Inc., priority 2018, published 2023)

Target: T1, MAGL (recombinant wild-type) (Homo sapiens, UniProt Q99685)
T1 sequence (Q99685 1-303): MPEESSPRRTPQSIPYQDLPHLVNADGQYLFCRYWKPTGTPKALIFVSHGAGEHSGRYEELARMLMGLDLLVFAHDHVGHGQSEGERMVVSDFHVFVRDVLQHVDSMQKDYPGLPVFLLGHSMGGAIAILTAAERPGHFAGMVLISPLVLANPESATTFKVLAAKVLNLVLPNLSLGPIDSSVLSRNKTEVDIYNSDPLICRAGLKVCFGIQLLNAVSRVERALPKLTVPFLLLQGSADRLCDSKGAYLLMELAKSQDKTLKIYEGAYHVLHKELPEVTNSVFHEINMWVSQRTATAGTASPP
Assay: MAGL inhibition, 4-NPA assay (hydrolysis of 4-nitrophenylacetate, absorbance at 405 nm)
Format: biochemical
Details: 4-NPA assay (footnote [a]: values not marked [b])
Protocol: Compounds were profiled for MAGL inhibitory activity by measuring the enzymatic activity of MAGL by following the hydrolysis of 4-nitrophenylacetate resulting in 4-nitrophenol, which absorbs at 405-412 nm (G. G. Muccioli, G. Labar, D. M. Lambert, Chem. Bio. Chem. 2008, 9, 2704-2710). This assay is hereinafter abbreviated “4-NPA assay”.
The assay was carried out in 384 well assay plates (black with clear bottom, non-binding surface treated, Corning Ref. 3655) in a total volume of 40 μL. Compound dilutions were made in 100% DMSO (VWR Chemicals 23500.297) in a polypropylene plate in 3-fold dilution steps to give a final concentration range in the assay from 25 μM to 1.7 nM. 1 μL compound dilutions (100% DMSO) were added to 19 μL MAGL (recombinant wild-type) in assay buffer (50 mM TRIS (GIBCO, 15567-027), 1 mM EDTA (Fluka, 03690-100 mL)). The plate was shaked for 1 min at 2000 rpm (Variomag Teleshake) and then incubated for 15 min at RT. To start the reaction, 20 μL 4-Nitrophenlyacetate (Sigma N-8130) in assay buffer with 6% EtOH was added. The final concentrations in the assay were 1 nM MAGL and 300 μM 4-Nitrophenylacetate. After shaking (1 min, 2000 rpm) and 5 min incubation at RT, the absorbance at 405 nm was measured for a first time (Molecular Devices, SpectraMax Paradigm). A second measurement was then done after incubation for 80 min at RT. From the two measurements, the slope was calculated by subtracting the first from the second measurement.

How did the IC50 turn out when `O=C1CO[C@H]2CCN(C(=O)N3CCC(C(c4ccccc4)c4ccccc4)CC3)C[C@H]2N1` (racemic) [Example 1, rac-(4aR,8aS)-6-(4-Benzhydrylpiperidine-1-carbonyl)-4,4a,5,7,8,8a-hexahydropyrido[4,3-b][1,4]oxazin-3-one] was run?
The IC50 was 3 nM.

With `O=C1CO[C@H]2CCN(C(=O)N3CCC(c4cn(CC5CC5)c5ccc(Cl)cc45)CC3)C[C@H]2N1` (racemic) [Example 2, rac-(4aR,8aS)-6-(4-(5-Chloro-1-(cyclopropylmethyl)-1H-indol-3-yl)piperidine-1-carbonyl)hexahydro-2H-pyrido[4,3-b][1,4]oxazin-3(4H)-one] as the molecule, how does the IC50 read?
Its IC50 is 2 nM.

Which IC50 does the source give for `Cn1cc(C2CCN(C(=O)N3CC[C@@H]4OCC(=O)N[C@@H]4C3)CC2)c2cc(Cl)ccc21` (racemic) [Example 3, rac-(4aR,8aS)-6-(4-(5-Chloro-1-methyl-1H-indol-3-yl)piperidine-1-carbonyl)hexahydro-2H-pyrido[4,3-b][1,4]oxazin-3(4H)-one] here?
The IC50 was 3 nM.

`O=C1CO[C@H]2CCN(C(=O)N3CCC(C4c5ccccc5-c5ccccc54)CC3)C[C@H]2N1` (racemic) [Example 4, rac-(4aR,8aS)-6-(4-(9H-Fluoren-9-yl)piperidine-1-carbonyl)hexahydro-2H-pyrido[4,3-b][1,4]oxazin-3(4H)-one] was tested. Which IC50 did it give?
The IC50 was 5 nM.

With `COCCC(c1ccc(F)cc1)C1CCN(C(=O)N2CC[C@@H]3OCC(=O)N[C@@H]3C2)CC1` (mixture of isomers) [Example 6, rac-(4aR,8aS)-6-(4-(1-(4-Fluorophenyl)-3-methoxypropyl)piperidine-1-carbonyl)hexahydro-2H-pyrido[4,3-b][1,4]oxazin-3(4H)-one] as the molecule, how does the IC50 read?
The IC50 was 15 nM.

Which IC50 does the source give for `O=C1CO[C@H]2CCN(C(=O)N3CCC(c4c[nH]c5cc(F)ccc45)CC3)C[C@H]2N1` (racemic) [Example 7, rac-(4aR,8aS)-6-[4-(6-Fluoro-1H-indol-3-yl)piperidine-1-carbonyl]-4,4a,5,7,8,8a-hexahydropyrido[4,3-b][1,4]oxazin-3-one] here?
Its IC50 is 43 nM.

Which IC50 does the source give for `COC(c1ccc(F)cc1)C1CCN(C(=O)N2CC[C@@H]3OCC(=O)N[C@@H]3C2)CC1` (mixture of isomers) [Example 8, rac-(4aR,8aS)-6-(4-((4-Fluorophenyl)(methoxy)methyl)piperidine-1-carbonyl)hexahydro-2H-pyrido[4,3-b][1,4]oxazin-3(4H)-one] here?
The IC50 was 91 nM.

With `O=C1CO[C@H]2CCN(C(=O)N3CCC(c4noc5ccc(F)cc45)CC3)C[C@H]2N1` (racemic) [Example 9, rac-(4aR,8aS)-6-(4-(5-Fluorobenzo[d]isoxazol-3-yl)piperidine-1-carbonyl)hexahydro-2H-pyrido[4,3-b][1,4]oxazin-3(4H)-one] as the molecule, how does the IC50 read?
The IC50 was 644 nM.

For `O=C1CO[C@H]2CCN(C(=O)N3CCN([C@H](c4ccccc4)c4ccc(Cl)cc4)CC3)C[C@H]2N1` (racemic) [Example 10, rac-(4aR,8aS)-6-(4-(rac-(4-Chlorophenyl)(phenyl)methyl)piperazine-1-carbonyl)hexahydro-2H-pyrido[4,3-b][1,4]oxazin-3(4H)-one], which IC50 is on record?
Its IC50 is 5 nM.

`O=C1CO[C@H]2CCN(C(=O)N3CCN(C(c4ccc(F)cc4)c4ccc(F)cc4)CC3)C[C@H]2N1` (racemic) [Example 12, rac-(4aR,8aS)-6-[4-[bis(4-Fluorophenyl)methyl]piperazine-1-carbonyl]-4,4a,5,7,8,8a-hexahydropyrido[4,3-b][1,4]oxazin-3-one] was tested. Which IC50 did it give?
Its IC50 is 12 nM.

With `O=C1CO[C@H]2CCN(C(=O)N3CCN(c4c[nH]c5ccc(Cl)cc45)CC3)C[C@H]2N1` (racemic) [Example 14, rac-(4aR,8aS)-6-(4-(5-Chloro-1H-indol-3-yl)piperazine-1-carbonyl)hexahydro-2H-pyrido[4,3-b][1,4]oxazin-3(4H)-one] as the molecule, how does the IC50 read?
The IC50 was 133 nM.

How did the IC50 turn out when `CC(c1ccccc1)N1CCN(C(=O)N2CC[C@@H]3OCC(=O)N[C@@H]3C2)CC1` (mixture of isomers) [Example 15, rac-(4aR,8aS)-6-(4-(1-Phenylethyl)piperazine-1-carbonyl)hexahydro-2H-pyrido[4,3-b][1,4]oxazin-3(4H)-one] was run?
Its IC50 is 3000 nM.

Which IC50 does the source give for `Cn1ncc2cc(C3CCN(C(=O)N4CC[C@@H]5OCC(=O)N[C@@H]5C4)CC3)ccc21` (racemic) [Example 16, rac-(4aR,8aS)-6-(4-(1-Methyl-1H-indazol-5-yl)piperidine-1-carbonyl)hexahydro-2H-pyrido[4,3-b][1,4]oxazin-3(4H)-one] here?
Its IC50 is 1500 nM.

How did the IC50 turn out when `O=C1CO[C@@H]2CCN(C(=O)N3CCN([C@@H](c4ccccc4)c4ccc(F)cc4)CC3)C[C@@H]2N1` (racemic) [Example 17, rac-(4aR,8aS)-6-[4-[rac-(4-Fluorophenyl)-phenylmethyl]piperazine-1-carbonyl]-4,4a,5,7,8,8a-hexahydropyrido[4,3-b][1,4]oxazin-3-one] was run?
The IC50 was 6 nM.

For `N#C/C(=C\N1CCN(C(=O)N2CC[C@@H]3OCC(=O)N[C@@H]3C2)CC1)c1ccccc1` (racemic) [Example 18, (E/Z)-3-[4-[rac-(4aS,8aR)-3-oxo-4,4a,5,7,8,8a-hexahydropyrido[4,3-b][1,4]oxazine-6-carbonyl]piperazin-1-yl]-2-phenylprop-2-enenitrile], which IC50 is on record?
Its IC50 is 2100 nM.

With `O=C1CO[C@H]2CCN(C(=O)N3CCC(c4cn(C(CO)CCl)c5ccc(Cl)cc45)CC3)C[C@H]2N1` (mixture of isomers) [Example 20, rac-(4aR,8aS)-6-(4-(5-Chloro-1-(1-chloro-3-hydroxypropan-2-yl)-1H-indol-3-yl)piperidine-1-carbonyl)hexahydro-2H-pyrido[4,3-b][1,4]oxazin-3(4H)-one] as the molecule, how does the IC50 read?
The IC50 was 2 nM.

How did the IC50 turn out when `O=C1CO[C@H]2CCN(C(=O)N3CCC(C(CCO)c4ccc(F)cc4)CC3)C[C@H]2N1` (mixture of isomers) [Example 26, rac-cis-6-(4-(1-(4-Fluorophenyl)-3-hydroxypropyl)piperidine-1-carbonyl)hexahydro-2H-pyrido[4,3-b][1,4]oxazin-3(4H)-one] was run?
Its IC50 is 33 nM.

With `CC(c1ccc(C(F)(F)F)cc1)C1CCN(C(=O)N2CC[C@@H]3OCC(=O)N[C@@H]3C2)CC1` (mixture of isomers) [Example 27, (4aR,8aS)-6-(4-(1-(4-(Trifluoromethyl)phenyl)ethyl)piperidine-1-carbonyl)hexahydro-2H-pyrido[4,3-b][1,4]oxazin-3(4H)-one] as the molecule, how does the IC50 read?
Its IC50 is 5 nM.

`CC(Oc1ccc(F)cc1Cl)C1CCN(C(=O)N2CC[C@@H]3OCC(=O)N[C@@H]3C2)CC1` (mixture of isomers) [Example 28, rac-(4aR,8aS)-6-(4-(1-(2-Chloro-4-fluorophenoxy)ethyl)piperidine-1-carbonyl)hexahydro-2H-pyrido[4,3-b][1,4]oxazin-3(4H)-one] was tested. Which IC50 did it give?
Its IC50 is 2 nM.

`O=C1CO[C@H]2CCN(C(=O)N3CCC(c4c[nH]c5cc(F)ccc45)CC3)C[C@H]2N1` (relative stereo) [Example 5, (+)-cis-6-[4-(6-Fluoro-1H-indol-3-yl)piperidine-1-carbonyl]-4,4a,5,7,8,8a-hexahydropyrido[4,3-b][1,4]oxazin-3-one] was tested. Which IC50 did it give?
Its IC50 is 14 nM.

`O=C1CO[C@H]2CCN(C(=O)N3CCN(C(c4ccc(F)cc4)c4ccc(F)cc4)CC3)C[C@H]2N1` (relative stereo) [Example 11, (+)-cis-6-(4-(bis(4-Fluorophenyl)methyl)piperazine-1-carbonyl)hexahydro-2H-pyrido[4,3-b][1,4]oxazin-3(4H)-one] was tested. Which IC50 did it give?
The IC50 was 8 nM.
